# Entries after “also recorded” stand apart in the source; their conditions may differ.
# Experiments:
# [1] = system: PC-3; assay: PC-3 prostate cancer xenograft model; type: in vivo; conditions: PC-3 (non functional AR), intact male mice, 30 mg/kg, Solution, qd28
# Procedure: (§1) Compound A's activity was measured in a variety of castrate-sensitive and castrate-resistant prostate cancer (CRPC) xenograft models (Table 32).
# [2] = system: VCaP tumors; assay: VCaP prostate cancer xenograft model; type: in vivo, SCID Beige male mice; conditions: VCaP (amplified AR, some AR-V7), castrated male mice, Solution, qd24
# [3] = PK study, single PO dose, rats; type: in vivo; conditions: Sprague-Dawley, rat, plasma, male SD rats; for half-life: read-out: T½ (converted)
# Procedure: A single PO dose of Compound A in three different formulations were administered to male Sprague-Dawley (SD) rats. Animals in Group 1 (Solution) received Compound A by oral gavage (PO) administration at 30 mg/kg, which was formulated in 4% NMP, 20% Capmul MCM, 21% Vitamin E TPGS, 55% PEG400. Animals in Group 2 (Suspension A) received Compound A by oral gavage (PO) administration at 100 mg/kg, which was formulated in SDD formulation with HPMCAS-H in 0.5% Methocel A4M in water. Mean plasma of Compound A was measured over 24-hour period after administration of Compound A (FIG. 15A) and PK parameters were determined (Table 29).
# [4] = Phase I clinical study, safety (DLT); type: in vivo, human
# Procedure: (§2) Phase I clinical research study of Compound A is studied as a treatment for patients with prostate cancer. All patients in the study receives Compound A at a once daily oral dose of 200 mg, 400 mg, 600 mg, 800 mg, or 1000 mg. Compound A in this study is provided as an SDD composition with HPMCAS-H. One cycle of treatment is 28 days of dosing.
# The primary safety variable for Part 1a of the study is the incidence of protocol-defined dose limiting toxicity (DLT) during the DLT assessment period (first 28 days of dosing). The DLTs will be characterized by type, frequency, severity (as graded by National Cancer Institute Common Terminology Criteria for AEs [NCI CTCAE version 5.0]), timing, seriousness, and relationship to study drug.
# [5] = system: serum prostate specific antigen (PSA); assay: Phase I clinical study, serum PSA; type: in vivo, human; conditions: 200 mg/day
# Procedure: as §2
# The primary efficacy variable for Part 1b of the study is the proportion of patients with a decline from baseline in prostate specific antigen (PSA) blood concentrations of ≥50% at any time point during daily dosing with Compound A,
# The study is still on-going with other dose levels.
# [6] = system: HID28; assay: Enzalutamide resistant patient-derived xenograft (PDX) model HID28; type: in vivo, nude mice; conditions: HID28 PDX (AR+ PSA+), castrated male mice, 60 mg/kg, SDD, qd28
# Procedure: as §1
# For example, intact male nude mice were engrafted with HID28 tumor fragments and once tumors reached ˜150 mm^3 the mice were castrated. The mice were enrolled in the experiment once the tumors started to regrow, 10 days post-castration. Compound A was tested in the HID28 PDX model at 60 mg/kg, QD for 28 days using SDD formulation with HPMCAS-H in 0.5% Methocel A4M in water.
# Mean tumor volume in castrated nude mice bearing enzalutamide resistant patient-derived xenograft (PDX) model HID28 was measured after oral treatment with solid dispersion composition of Compound A or enzalutamide for 28 days (n=6-7 per group) is shown in FIG. 16B.
# [7] = system: LNCaP95; assay: LNCaP95 prostate cancer xenograft model; type: in vivo; conditions: LNCaP95 (high level AR-V7), castrated male mice, 30 mg/kg, Solution, qd24
# Procedure: as §1
# [8] = system: 22Rv1; assay: 22Rv1 prostate cancer xenograft model; type: in vivo; conditions: 22Rv1 (high level AR-V7), castrated male mice, 30 mg/kg, Solution, qd28
# Procedure: as §1
# [9] = Phase I clinical study, PK; type: in vivo, human; conditions: patients; for Cmax / Tmax / AUC(0-t) / half-life: po, 200 mg/day; for AUC(0-t): read-out: AUC0-24; for half-life: read-out: t½ (converted)
# Procedure: as §2
# PK parameters were measured from 4 subjects who were administered at 200 mg/day dose (Table 33). One patient discontinued before day 28 due to disease progression. 2 subjects received both abiraterone and enzalutamide prior treatments. 3 subjects received prior chemotherapy with taxanes.
# [10] = system: LNCaP; assay: LNCaP prostate cancer xenograft model; type: in vivo; conditions: LNCaP (AR FL), castrated male mice, 60 mg/kg, Solution, qd24
# Procedure: as §1
# [11] = PK study, single PO dose, dogs; type: in vivo; conditions: male, Beagle, dog, plasma; for half-life: read-out: T½ (converted)
# Procedure: A single PO dose of Compound A in two different formulations were administered to male Beagle dogs. Mean plasma of Compound A was measured over 24-hour period after administration of Compound A (FIG. 15B) and PK parameters were determined (Table 30).
# [12] = PO 30 mg/kg, Solution (4% NMP, 20% Capmul MCM, 21% Vitamin E TPGS, 55% PEG400)
# [13] = PO 100 mg/kg, Suspension A (SDD with HPMCAS-H in 0.5% Methocel A4M in water)
# [14] = 3 subjects, 28 day dosing at 200 mg/day
# [15] = male, human, in vivo, 200 mg/day oral SDD with HPMCAS-H, Day 1, N 4
# [16] = male, human, in vivo, 200 mg/day oral SDD with HPMCAS-H, Day 28, N 3
# [17] = 50 mg/kg, PO 50 mg/kg, Solution (5% NMP, 20% vitamin E TPGS, 20% PEG 300, 0.5% SLS, 1.09% HPMCAS-H, 53.91% water)
# [18] = 50 mg/kg, PO 50 mg/kg, Suspension A (SDD)
# [19] = 100 mg/kg, PO 100 mg/kg, Suspension A (SDD)
smiles,measurement,setting,value
"CC(C)(c1ccc(OCc2ccnc(NS(C)(=O)=O)n2)cc1)c1cc(Cl)c(OCCCl)c(C#N)c1 [Compound A, N-(4-((4-(2-(3-chloro-4-(2-chloroethoxy)-5-cyanophenyl)propan-2-yl)phenoxy)methyl)pyrimidin-2-yl)methanesulfonamide]",TGI (Tumor Growth Inhibition),[1],0%
same,TGI (Tumor Growth Inhibition),[2]; 3 mg/kg,54%
same,TGI (Tumor Growth Inhibition),[2]; 10 mg/kg,95%
same,TGI (Tumor Growth Inhibition),[2]; 30 mg/kg,>100%
same,AUC(0-t),[3]; [12],399 µg·h/mL
same,Cmax,[3]; [12],26.8 µg/mL
same,Tmax,[3]; [12],9.3 h
same,half-life,[3]; [12],7.6 h
same,AUC(0-t),[3]; [13],1180 µg·h/mL
same,Cmax,[3]; [13],89.8 µg/mL
same,Tmax,[3]; [13],5.3 h
same,half-life,[3]; [13],6.2 h
same,tolerability,[4]; 200 mg/day,well tolerated
same,dose limiting toxicity (DLT),[4]; [14],No DLTs were observed; also recorded: No dose limiting toxicity was observed
same,severe adverse events,[4]; [14],no severe adverse events were observed
same,Serum PSA level decline,"[5]; one subject, after 3 cycles (12 weeks)",> 50%
same,Serum PSA levels,[5]; two other subjects,showed increase
same,TGI (Tumor Growth Inhibition),[6],58%
same,TGI (Tumor Growth Inhibition),[7],54%
same,TGI (Tumor Growth Inhibition),[8],48%
same,Cmax,[9]; [15],3.29 µg/mL
same,Tmax,[9]; [15],6.5 h
same,AUC(0-t),[9]; [15],53.9 µg·h/mL
same,half-life,[9]; [15],22 h
same,Cmax,[9]; [16],8.02 µg/mL
same,Tmax,[9]; [16],6.7 h
same,AUC(0-t),[9]; [16],147 µg·h/mL
same,half-life,[9]; [16],24.8 h
same,concentration at 28 day,"[9]; male, human, in vivo, 200 mg/day oral SDD with HPMCAS-H, Day 28, N 3, read-out: Clast",4.59 µg/mL
same,Clast,"[9]; 200 mg/day oral SDD with HPMCAS-H, Day 1, N 4","1,808 ng/mL"
same,time to steady state,[9]; repeat QD dosing 200 mg/day,after day 8
same,TGI (Tumor Growth Inhibition),[10],93%
same,AUC(0-t),[11]; [17],648 µg·h/mL
same,Cmax,[11]; [17],45.8 µg/mL
same,Tmax,[11]; [17],2 h
same,half-life,[11]; [17],21.9 h
same,AUC(0-t),[11]; [18],845 µg·h/mL
same,Cmax,[11]; [18],55.5 µg/mL
same,Tmax,[11]; [18],3.3 h
same,half-life,[11]; [18],16.2 h
same,AUC(0-t),[11]; [19],1450 µg·h/mL
same,Cmax,[11]; [19],80.6 µg/mL
same,Tmax,[11]; [19],5.3 h
same,half-life,[11]; [19],24 h

# Source: US20240207264A1, “PHARMACEUTICAL COMPOSITIONS COMPRISING INHIBITORS OF THE ANDROGEN RECEPTOR AND USES THEREOF” (ESSA PHARMA INC., priority 2021, published 2024)
